Assay results from patent US6750008B1, “Methods and compositions for inhibition of membrane fusion-associated events, including HIV transmission” (priority 1999, dated 2004).
Entries after “also recorded” stand apart in the source; their conditions may differ.

Columns and labels:
[1] = test system: RSV; assay: Anti-RSV antiviral activity assay (syncytial formation, Hep-2 cells); type: cell-based, respiratory syncytial virus; conditions: purified peptides
Method: The assay utilized herein tested the ability of the peptides to disrupt the ability of HEp2 cells acutely infected with RSV (i.e., cells which are infected with a multiplicity of infection of greater than 2) to fuse and cause syncytial formation on a monolayer of uninfected an uninfected line of Hep-2 cells. The lower the observed level of fusion, the greater the antiviral activity of the peptide was determined to be. […]
After incubation, cells in control wells were checked for fusion centers, media was removed from the wells, followed by addition, to each well, of either Crystal Violet stain or XTT. […] The number of syncytia per well were then counted, using a dissecting microscope.
With respect to XTT (2,3-bis[2-Methoxy-4-nitro-5-sulfophenyl]-2H-tetrazolium-5-carboxyanilide inner salt), 50 μl XTT (1 mg/ml in RPMI buffered with 100 mM HEPES, pH 7.2-7.4, plus 5% DMSO) were added to each well. The OD450/690 was measured (after blanking against growth medium without cells or reagents, and against reagents) according to standard procedures. […]

[2] = test system: HIV-1LAI virus; conditions: FIG. 1 legend
Method: Synthetic peptides were incubated at 37° C. with either 247 TCID50 (for experiment depicted in FIG. 2), or 62 TCID50 (for experiment depicted in FIG. 3) units of HIV-1LAI virus or 25 TCID50 units of HIV-2NIHZ and CEM CD4^+ cells at peptide concentrations of 0, 0.04, 0.4, 4.0, and 40 μg/ml for 7 days. The resulting reverse transcriptase (RT) activity in counts per minute was determined using the assay described, below, in Section 6.1.5. See Reed, L. J. et al., 1938, Am. J. Hyg. 27: 493-497 for an explanation of TCID50 calculations.
The micro-reverse transcriptase (RT) assay was adapted from Goff et al. (Goff, S. et al., 1981, J. Virol. 38:239-248) and Willey et al. (Willey, R. et al., 1988, J. Virol. 62:139-147). Supernatants from virus/cell cultures are adjusted to 1% Triton-X100. A 10 μl sample of supernatant was added to 50 μl of RT cocktail in a 96-well U-bottom microtitre plate and the samples incubated at 37° C. for 90 min. The RT cocktail contained 75 mM KCl, 2 mM dithiothreitol, 5 mM MgCl2, 5 μg/ml poly A (Pharmacia, cat. No. 27-4110-01), 0.25 units/ml oligo dT (Pharmacia, cat. No. 27-7858-01), 0.05% NP40, 50 mM Tris-HCl, pH 7.8, 0.5 μM non-radioactive dTTP, and 10 μCi/ml ^32P-dTTP (Amersham, cat. No. PB.10167).
After the incubation period, 40 μl of reaction mixture was applied to a Schleicher and Schuell (S+S) NA45 membrane (or DE81 paper) saturated in 2×SSC buffer (0.3M NaCl and 0.003M sodium citrate) held in a S+S Minifold over one sheet of GB003 (S+S) filter paper, with partial vacuum applied. Each well of the minifold was washed four times with 200 μl 2×SSC, under full vacuum. The membrane was removed from the minifold and washed 2 more times in a pyrex dish with an excess of 2×SSC. Finally, the membrane was drained on absorbent paper, placed on Whatman #3 paper, covered with Saran wrap, and exposed to film overnight at −70° C.
DP178 (SEQ ID:1) was next tested for its ability to block CD-4^+ CEM cell infection by cell free HIV-1 virus. […]

[3] = biological target: T1, DP107-like domain of the RSV F1 protein (Human respiratory syncytial virus A, UniProt P03420); type: binding
T1 construct: made in house
T1 sequence (P03420 142-302): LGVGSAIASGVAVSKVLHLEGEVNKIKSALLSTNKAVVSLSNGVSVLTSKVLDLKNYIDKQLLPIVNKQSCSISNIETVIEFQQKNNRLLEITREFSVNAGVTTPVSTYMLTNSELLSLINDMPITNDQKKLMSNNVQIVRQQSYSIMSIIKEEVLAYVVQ
Method: After incubation and washing, unbound Fab-d is removed from the plates and bound Fab-d is quantitated. A no-inhibitor control should also be conducted.
Such an assay takes advantages of accepted radioligand and receptor binding principles.
Specifically, the DNA sequence corresponding amino acid residues 142-302 of the RSV F1 protein was amplified by PCR and cloned into the Xmn I site of the expression vector pMal-p2 (New England Biolab) to give MF5.1. These amino acid residues correspond to the extracellular domain of the RSV F1 protein including its DP107 region but excluding the DP178 region.
Cell fusion assays were performed with each of the peptides as described in Section 17 above. The binding affinity of each peptide was also measured in a competitive binding assay described in Section 5.6.1 above, wherein the concentration of each peptide necessary to bind to the M5.1 fusion protein (i.e., the B50 value), and thereby disrupt binding of biotin labeled T112 (T888) to the fusion protein, was measured.

[4] = test system: HIV-1LAI virus; assay: Cell fusion assay (HIV-1 induced syncytia formation); type: cell-based
Text: The results of several such experiments are presented herein.

[5] = biological target: viral gp41 of HIV-1 (on virions and HIV-1 infected cells) (HIV-1) (UniProt P03377); assay: cell-based or functional assay
[6] = test system: CEM cells; assay: Cell proliferation and toxicity assay; type: cell-based; conditions: 3 days, highest concentration tested 40 μg/ml
Method: Cell proliferation and toxicity assay: Approximately 3.8×10^5 CEM cells for each peptide concentration were incubated for 3 days at 37° C. in T25 flasks. Peptides tested were DP178 (SEQ ID:1) and DP-116 (SEQ ID:9), as described in FIG. 1. Peptides were synthesized as described, above, in Section 6.1. The concentrations of each peptide used were 0, 2.5, 10, and 40 μg/ml. Cell counts were taken at incubation times of 0, 24, 48, and 72 hours.

Question: Which “anti-RSV antiviral activity” value [1] does the source give for `CC[C@H](C)[C@H](NC(=O)[C@H](Cc1ccccc1)NC(=O)[C@H](C)NC(=O)[C@H](CC(C)C)NC(=O)[C@H](CO)NC(=O)[C@H](CCC(N)=O)NC(=O)[C@H](CC(N)=O)NC(=O)[C@@H](NC(=O)[C@H](CCCCN)NC(=O)[C@H](CCC(=O)O)NC(=O)[C@H](CC(N)=O)NC(=O)[C@@H](NC(=O)[C@H](CCC(N)=O)NC(=O)[C@H](CO)NC(=O)[C@@H](NC(=O)[C@H](CO)NC(=O)[C@H](C)NC(=O)[C@H](CC(=O)O)NC(=O)[C@H](Cc1ccccc1)NC(=O)[C@H](CCC(=O)O)NC(=O)[C@H](CC(=O)O)NC(=O)[C@H](CO)NC(=O)[C@@H]1CCCN1C(=O)[C@H](Cc1ccccc1)NC(=O)[C@@H](NC(C)=O)C(C)C)[C@@H](C)CC)C(C)C)[C@@H](C)CC)C(=O)N[C@@H](CCCNC(=N)N)C(=O)N[C@@H](CCCCN)C(=O)N[C@@H](CO)C(=O)N[C@@H](CC(=O)O)C(=O)N[C@@H](CCC(=O)O)C(=O)N[C@@H](CC(C)C)C(=O)N[C@@H](CC(C)C)C(=O)N[C@@H](Cc1c[nH]cn1)C(=O)N[C@@H](CC(N)=O)C(=O)N[C@H](C(N)=O)C(C)C` [T112] here?
Answer: substantial antiviral activity

Question: Which “inhibition of HIV-1 cell free virus infection” value [2] does the source give for “Ac-LQARILAVERYLKDQQQ-NH2 [DP-116, reference compound]” here?
Answer: negative for inhibition of HIV-1 infection

Question: For “Ac-VYPSDEFDASISQVNEKINQALAYIRKADELLHNV-NH2 [T786]”, which “binding affinity relative to T112” value [3] is on record?
Answer: approximately ten-fold less

Question: And the Kd ([3]; B50, competition with biotin labeled T112 (T888), read-out: binding affinity)?
Answer: 19 nM

Question: With “DP-180: control peptide incorporating the amino acid residues of DP178 in a scrambled sequence (NNLLRAIEAQQHLLQLTVW; Core polypeptide) [reference compound]” as the compound, how does the anti-fusogenic activity ([4]; at 40 μg/ml) read?
Answer: no evidence of anti-fusogenic activity

Question: How did the “block of HIV-1-mediated syncytia formation” value [4] turn out when “H-YTNTIYTLLEESQNQQEKNEQELLELDKWASLWNWF-OH [DP-185]” was run?
Answer: block HIV-1-mediated syncytia formation

Question: And the “inhibitory activity on HIV-1-induced syncytia formation, lowest concentration tested” value ([4]; FIG. 4)?
Answer: ≤ 312.5 ng/mL

Question: How did the Cell fusion (IC90) [5] turn out when “M41 (maltose binding fusion protein of the gp41 ectodomain) (from UniProt P0AEX9 27-392; P03377 540-686)” was run?
Answer: > 50000 nM

Question: And the HIV infectivity (IC90) [5]?
Answer: > 16000 nM

Question: With M41-P (from UniProt P03377 540-686) as the compound, how does the Cell fusion (IC90) [5] read?
Answer: 83 nM

Question: What about the HIV infectivity (IC90) [5] of the same compound?
Answer: 66 nM

Question: Which Cell fusion (IC90) [5] does the source give for M41-PΔ178 (from UniProt P03377 540-642) here?
Answer: > 50000 nM

Question: And the HIV infectivity (IC90) [5]?
Answer: > 8000 nM

Question: enfuvirtide was tested. Which “cytotoxic effects on cells in culture” value [6] did it give?
Answer: non-cytotoxic; also recorded: no cytotoxic effects
